Laboratory results taken from patent publication US9440914B2, “Method for treating glioblastomas and other tumors” (THE FEINSTEIN INSTITUTE FOR MEDICAL RESEARCH, priority 2013, dated 2016).

Key:
GL261 tumors = assay: orthotopic GL261 glioblastoma model in syngeneic C57Bl/6 mice, intracranial delivery by osmotic pump; assay type: in vivo, C57BL/6J mice
Procedure: Animal Experiments: All procedures involving mice were conducted in accordance with the National Institutes of Health regulations concerning the use and care of experimental animals. The study of mice was approved by the Institutional Animal Care and Use Committee (IACUC) of the Feinstein Institute. First, 8 week old male C57BL/6J mice were inoculated in the right caudate putamen with GL261 cells. Briefly, animals were placed in a stereotactic frame after pre-anesthesia exposure in a box of 5% isoflurane. Deep anesthesia was maintained on the frame at approximately 2% isoflurane and 2% O2. A burr hole was drilled 1 mm anterior and 2.5 mm to the right of the bregma. With the aid of the stereotactic frame, GL261 cells (2×10^4 cells suspended in 1 μL) were injected with a Hamilton syringe at a depth of 3 mm over a one min time period. Subsequently, the syringe was left in place for 1 min to prevent reflux.
Seven days after implantation of the GL261 cells, an osmotic pump (Alzet, Durect) filled with either 0.42 mg/ml solution of semapimod or vehicle was implanted in a subcutaneous pocket on the dorsal flank of the animal. A catheter with attached cannula delivered the drug intracranially over a period of 2 weeks, at a steady rate of 0.25 μl/h, which is equivalent to a dose of […], assuming no blood-brain barrier permeability of the drug. Starting one day after pump implantation, animals were given 2 Gy whole brain irradiation every other day over a period of 10 days (10 Gy total).
Brains from mice-bearing tumors were frozen on dry ice and stored at −80° C. until processing. The brain was sliced using a cryostat at −20° C. at a thickness of 40 μm (for tumor sizing) or 8 μm for immunohistochemistry. Slices were placed on pre-coated poly-1-lysine slides (Superfrost, Fisher) and fixed in 3.7% formaldehyde in PBS. Sections were stained with Harris-modified haematoxilin solution. Activated microglia were visualized with an Iba1 antibody (Wako). Tumor cell invasion was determined by counting the number of Ki67 (Millipore) positive nuclei located beyond the tumor border. The border was outlined by determining where the bulk of the tumor material was found by Ki67 staining Tumor size was determined as the area of the largest cross section of the tumor, multiplied by the depth of the tumor.
The cell density of the tumor was calculated by counting the total number of cells in 10 fields taken over different sections and multiplying the tumor area by the thickness of the slice (8 μm) to obtain total number of cells in a tumor section. This was then divided by the volume of the tumor section to obtain the number of cells per unit volume. To obtain the total number of cells in a tumor, the cell density was multiplied by the calculated volume of the tumor.
Animals were inoculated with 2×10^4 GL261 cells into the right caudate putamen. To deliver semapimod, an osmotic pump was used that was implanted subcutaneously in the dorsal flank of the animal and fed a transcranial cannula that was inserted into the tumor. In order to mimic a therapeutic setting, tumors were allowed to develop for 1 week before the onset of treatment. To score tumor cell invasion, brain sections were probed for the presence of proliferative antigen Ki67. […] Whereas control tumors display diffuse edges and extensive tumor cell invasion into the surrounding parenchyma, semapimod-treated tumors have a sharply demarcated border (FIG. 4A).

[1] = phase II clinical trial for Crohn's disease; cited from earlier work
GL261 cells = assay: proliferation assay of GL261 co-cultured with microglia (SRB); assay type: cell-based, murine; conditions: 200 nM, 3 days
Procedure: Proliferation Assay: 50,000 GL261 cells were cultured overnight in the absence or presence or microglia (50,000 or 150,000) in serum-containing medium and subsequently cultured in the presence or absence of 200 nM semapimod in a 6-well dish in serum-free conditions. Microglia were added in a ratio of 1:1 or 1:3 GL261:microglia. After 72 h of incubation, plates were washed in PBS and fixed in 3.7% formaldehyde in PBS. In initial experiments, the microglia were stained with tomato lectin for 45 mins and stained all nuclei with DAPI. Ten fluorescence micrographs of each culture were taken with a Zeiss Axiovert-based imaging system. […] Therefore in subsequent experiments the cells were stained with SRB as described for the colony formation assay. After drying, the plates were de-stained with 500 μL of 10 mM Tris base (Sigma). Eluted SRB was measured by absorbance at 490 nm.

[2] = two weeks after tumor cell inoculation

Compound: C/C(=N\NC(=N)N)c1cc(NC(=O)CCCCCCCCC(=O)Nc2cc(/C(C)=N/NC(=N)N)cc(/C(C)=N/NC(=N)N)c2)cc(/C(C)=N/NC(=N)N)c1 [semapimod]
- median survival (GL261 tumors; absence of radiation, controls 20 days, not significant): 22 days
- number of Iba1+ microglia per tumor area (GL261 tumors; equivalent to 6 mg/kg/day intracranially, 1 week): No significant difference
- inhibition of tumor cell invasion in vivo (Ki67-positive cells beyond tumor border) (GL261 tumors; equivalent to 6 mg/kg/day intracranially, 1 week, start 7 days after inoculation): more than 75%
- tumor cell density (GL261 tumors; [2]): small but significant increase
- tumor size (volume) (GL261 tumors; [2]): robust inhibition
- estimated total number of cells in tumor (GL261 tumors; two weeks after tumor cell inoculation, versus control tumors): significantly less
- tumors by histological analysis in surviving animals (GL261 tumors; with 10 Gy fractionated whole brain irradiation): no detectable tumors
- survival beyond the median survival time of control animals (GL261 tumors; with 10 Gy fractionated whole brain irradiation, most of the animals): at least 40 days
- tolerability in humans [1]: very well tolerated
- effect on microglia-stimulated glioblastoma cell proliferation (GL261 cells): does not affect
